Experimental data reported in patent US12065468B2, “Heme-binding small peptide” (priority 2021, dated 2024).
Entries after “also recorded” stand apart in the source; their conditions may differ.

Key:
S. meliloti = assay: ICP-MS iron content of cells; format: cell-based, Sinorhizobium meliloti; conditions: 2 μM
Description: ICP-MS: 200 μL of protein sample was mixed with 2 ml of 2% HNO3 and ICP-MS was performed as described previously^84. For bacterial samples, 1 ml of sample was spun down and the pellet was resuspended in 40 μL of 100% HNO3 and heated at 98° C. for 1 hour. The supernatant of the solution was mixed with metal free water to make up to 2 mL and ICP-MS analysis was performed as described previously^84. Same number of cells were spun down for protein analysis through […] and data were normalized to the amount of protein in each sample. For ICP-MS analysis of nodules same procedure was followed, except nodules were first crushed in PBS, portion of sample kept aside for protein quantification and then remaining was treated with HNO3. Agilent ICP-MS instrumentation with MassHunter 4.4 was used to collect data.

[1] = UV-Vis spectroscopy / colour change on heme addition; format: binding
Description: Heme preparation: Hemin solutions were always prepared in 0.1 M NaOH and used within 30 min of preparation. 1:1000 and 1:500 dilution of the stock solution was made and stock concentration was measured by pyridine hemochrome assay as described previously^85 by measuring the absorption at 557 nm using the extinction coefficient of pyridine hemochromogen (34.7 mM^−1 cm^−1).
UV-VIS spectroscopy: All absorption spectra were collected in a Tecan Spark™ 10 M microplate reader using black polystyrene 96-well plates. Absorbance from 300 nm to 700 nm was recorded with a 5 nm interval after an initial shaking at 100 rpm for 15 secs. Heme binding to synthesized peptide: Water (pH 7.4) was used in all reactions and was first added to the wells. Peptides solubilized in water were added and then heme solubilized in 0.1 M NaOH was added, mixed thoroughly and measurements were taken immediately. Peptide and heme volume were kept to a maximum of 5 ul in volume. For all the absorption curves (except Extended FIG. 3a) […] was used. The same was also repeated with 0.1 M Tris buffer (pH 7.4) as a base buffer instead of water.

Toxoplasma gondii = assay: T. gondii plaque assay on human foreskin fibroblasts; format: cell-based; conditions: 6 hr. pre-treatment of parasites
Description: Parasite and host cell culture: T. gondii parasites (strain RH, ATCC 50838) were grown in human foreskin fibroblasts (HFFs) maintained in DMEM (GIBCO) supplemented with 3% inactivated fetal calf serum (IFS) and 10 μg/mL gentamicin (Thermo Fisher Scientific), referred to as D3. Where noted, DMEM supplemented with 10% IFS and 10 μg/mL gentamicin was used, referred to as D10.
Plaque Assays: Freshly lysed parasites were filtered through 5 μm filters and spun down at 1000×g and 18° C. for 10 min. Parasites were resuspended to 6E6 parasites/mL in Fluorobrite™ media supplemented with 3% IFS. Parasites were incubated with either peptide or vehicle for 6 hours at 37° C. and 5% CO2. Parasites were then spun down, washed once in 2 mL of Fluorobrite™ supplemented with 3% IFS, and resuspended in 1 mL of media. 2000 parasites were inoculated into each well of 6-well plates of HFFs maintained in D10 and allowed to grow undisturbed for 9 days. Plates were washed with PBS and fixed for 10 min at room temperature with 100% ethanol. Monolayers were visualized by staining for 5 min at room temperature with crystal violet solution, followed by two washes with PBS, one wash with water, and drying overnight.

Sinorhizobium meliloti = assay: S. meliloti growth curve; format: cell-based; conditions: increasing amounts of peptide; minimal medium
Description: Growth curve: All growth curve experiments were performed in a Tecan SPARK 10M microplate reader using polystyrene flat bottomed, non-treated, sterile 96 well plates. Overnight cultures grown in LBMC were washed and were subcultured (1:100 dilution) in minimal medium supplemented with respective iron concentrations. The plates were programed to continuously shake at 150 rpm and temperature maintained at 30° C. Optical density was measured at 600 nm every 60 minutes.

Caenorhabditis elegans = assay: C. elegans growth; conditions: in vivo
Text: When grown in the lab, the widely-studied model nematode Caenorhabditis elegans normally acquires heme by ingesting bacteria and breaking them down to release heme. […] A new class of heme importer was identified in C. elegans by analyzing heme-responsive proteins and orthologs have been subsequently identified in other parasites such as the kinetoplastid parasite discussed above.

[2] = Biolayer interferometry of heme binding
Text: Biotinylation of heme: Hemin was biotinylated using the method exactly as described previouslyl^16. Biotin hydrazide, DCC was purchased from Sigma. COSMOSIL™ 5C18-AR-II Packed Column, 4.6 mm I.D.×150 mm from Nacalai USA (San Diego, CA) was used to separate the products. LC-MS was used to verify the correct molecular weight (969.4 Da) of biotinylated heme (in which only one of the two propionate groups of protoheme was conjugated with biotin hydrazide) as described above.
Biolayer interferometry: Biolayer interferometry was carried out using a ForteBio Octet RED96™ biolayer interferometer, following the manufacturer's instructions for a standard kinetic assay. Streptavidin-coated biosensor tips were incubated in 200 μl assay buffer (Water [pH 7.4]), each for 60s. Then biotinylated heme (or NCR247 in the case of Fe(III) PPIX dimethyl ester chloride) was loaded onto each biosensor tip at the defined concentration until the binding signal reached a value of >1.4. Biosensor tip loading was followed by incubation in assay buffer for 60s. Association between the ligand-heme and the analyte-various variants of NCR247 (Increasing concentrations in assay buffer) was observed over a time frame of ˜116 s, in assay buffer. To stop binding kinetics for dissociation, the biosensor tips were placed back into assay buffer not containing any analyte, for 120 s. Curves were fit with Global fit analysis and Data analysis and KD calculation was performed using Fortebio™ data analyses 8.2 software as described previously^89.

With RNGCIVDPRCPYQQCRRPLYCRRR [NCR247] the “total iron content of cells” value (S. meliloti) was “elevated total iron content of the cells”, the “total iron content of cells” value (S. meliloti; listed as L-NCR247) was “Increase in Fe content” and the “heme binding (absorption peaks 366 nm, ~450 nm; colour change)” value ([1]; heme added to peptide, ferric heme) was “bound within seconds; also recorded: binds heme”. The “binding of ferrous heme” value ([1]; sodium dithionite-reduced Fe(II) heme) was “binds sodium dithionite-reduced Fe(II) ferrous heme”, the “capacity of T. gondii to form plaques” value (Toxoplasma gondii) was “massive reduction in the capacity of the parasite to form plaques” and the “inhibition of growth of S. meliloti (bacteriostatic effect)” value (Sinorhizobium meliloti) was “reduction in growth rate; also recorded: inhibits the growth of Sinorhizobium meliloti”. For the same sequence, the “growth of C. elegans” value (Caenorhabditis elegans) was “can block the growth; also recorded: blocks growth of the nematode C. elegans, arresting them in the L1 stage”, the Kd ([2]; biotinylated heme as ligand, peptide as analyte) was ~1 nM and the “heme binding affinity, in words” value ([2]; compared with NCR247 (L-enantiomer)) was “binds heme with nanomolar affinity”.
